Measured values taken from paper PMC5218480 (PLoS ONE, 2017).

System: MV-4-11 cells
Test: Gene expression microarray analysis (Affymetrix PrimeView) and GSEA
Type: cell-based, human
Parameters: RFU PODN (11730768_x_at) / Fold change /veh PODN (11730768_x_at) / RFU LINC00158 (11744669_a_at) / Fold change /veh LINC00158 (11744669_a_at) / RFU DUSP10 (11751237_a_at) / Fold change /veh DUSP10 (11751237_a_at) / RFU ID3 (11757404_x_at) / Fold change /veh ID3 (11757404_x_at) / RFU PLEKHG5 (11737974_s_at) / Fold change /veh PLEKHG5 (11737974_s_at) / RFU LRRC4B (11730491_at) / Fold change /veh LRRC4B (11730491_at) / RFU GIMAP4 (11747438_a_at) / Fold change /veh GIMAP4 (11747438_a_at) / RFU KRT8 (11758183_x_at) / Fold change /veh KRT8 (11758183_x_at) / RFU CNN1 (11734310_a_at) / Fold change /veh CNN1 (11734310_a_at) / RFU VPS37D (11726825_at) / Fold change /veh VPS37D (11726825_at) / RFU C10orf10 (11716522_x_at) / Fold change /veh C10orf10 (11716522_x_at) / RFU KIR2DL2 /// KIR2DL4 /// KIR2DL5A /// KIR2DL5B /// KIR2DS1 /// KIR2DS2 /// KIR2DS3 /// KIR2DS4 /// KIR3DL3 /// KIR3DL3 /// KIR3DS1 (11738374_at) / Fold change /veh KIR2DL2 /// KIR2DL4 /// KIR2DL5A /// KIR2DL5B /// KIR2DS1 /// KIR2DS2 /// KIR2DS3 /// KIR2DS4 /// KIR3DL3 /// KIR3DL3 /// KIR3DS1 (11738374_at) / RFU C1QL1 (11718748_at) / Fold change /veh C1QL1 (11718748_at) / RFU TMPRSS4 (11747572_a_at) / Fold change /veh TMPRSS4 (11747572_a_at) / RFU HAMP (11756126_x_at) / Fold change /veh HAMP (11756126_x_at) / RFU RNFT2 (11725882_a_at) / Fold change /veh RNFT2 (11725882_a_at) / RFU NR4A2 (11747474_a_at) / Fold change /veh NR4A2 (11747474_a_at) / RFU ABCC12 (11746883_a_at) / Fold change /veh ABCC12 (11746883_a_at) / RFU TMEM136 (11760407_x_at) / Fold change /veh TMEM136 (11760407_x_at) / RFU CLDN22 /// WWC2 (11732394_at) / Fold change /veh CLDN22 /// WWC2 (11732394_at) / RFU HLA-DPB1 (11760878_x_at) / Fold change /veh HLA-DPB1 (11760878_x_at) / RFU SPINT1 (11716480_a_at) / Fold change /veh SPINT1 (11716480_a_at) / RFU GAP43 (11754022_s_at) / Fold change /veh GAP43 (11754022_s_at) / RFU A4GNT (11735810_at) / Fold change /veh A4GNT (11735810_at) / RFU PRB3 (11715151_x_at) / Fold change /veh PRB3 (11715151_x_at) / RFU TUBB4B (11761932_at) / Fold change /veh TUBB4B (11761932_at) / RFU CAPN14 (11732068_a_at) / Fold change /veh CAPN14 (11732068_a_at) / RFU TMCC2 (11721928_a_at) / Fold change /veh TMCC2 (11721928_a_at) / RFU IRGQ (11745062_a_at) / Fold change /veh IRGQ (11745062_a_at) / RFU FAM174B (11720279_a_at) / Fold change /veh FAM174B (11720279_a_at) / RFU TMPRSS4 (11748680_a_at) / Fold change /veh TMPRSS4 (11748680_a_at) / RFU FAM212B (11763350_a_at) / Fold change /veh FAM212B (11763350_a_at) / RFU PLEKHG5 (11743358_a_at) / Fold change /veh PLEKHG5 (11743358_a_at) / RFU ZSCAN30 (11745921_a_at) / Fold change /veh ZSCAN30 (11745921_a_at) / RFU CMKLR1 (11741424_a_at) / Fold change /veh CMKLR1 (11741424_a_at) / RFU LOC101060620 /// MAPK8IP1 (11723275_at) / Fold change /veh LOC101060620 /// MAPK8IP1 (11723275_at) / RFU SPTSSB (11747773_x_at) / Fold change /veh SPTSSB (11747773_x_at) / RFU PRSS12 (11739890_at) / Fold change /veh PRSS12 (11739890_at) / RFU BIN1 (11741810_x_at) / Fold change /veh BIN1 (11741810_x_at) / RFU WNT11 (11732464_a_at) / Fold change /veh WNT11 (11732464_a_at) / RFU C10orf10 (11716521_a_at) / Fold change /veh C10orf10 (11716521_a_at) / RFU C5orf56 (11738089_at) / Fold change /veh C5orf56 (11738089_at) / RFU CYB561 (11721691_x_at) / Fold change /veh CYB561 (11721691_x_at) / RFU ANKRD19P (11752326_a_at) / Fold change /veh ANKRD19P (11752326_a_at) / RFU OR2T12 /// OR2T33 /// OR2T8 (11738714_s_at) / Fold change /veh OR2T12 /// OR2T33 /// OR2T8 (11738714_s_at) / RFU VCAN (11748164_a_at) / Fold change /veh VCAN (11748164_a_at) / RFU JSRP1 (11732532_at) / Fold change /veh JSRP1 (11732532_at) / RFU KRTAP10-11 (11738290_x_at) / Fold change /veh KRTAP10-11 (11738290_x_at) / RFU MYO3A (11730013_a_at) / Fold change /veh MYO3A (11730013_a_at) / RFU EBF3 (11725865_a_at) / Fold change /veh EBF3 (11725865_a_at) / RFU CAMK2N1 (11719241_x_at) / Fold change /veh CAMK2N1 (11719241_x_at) / RFU C5orf56 (11738088_a_at) / Fold change /veh C5orf56 (11738088_a_at) / RFU OLFML3 (11715873_a_at) / Fold change /veh OLFML3 (11715873_a_at) / RFU LOC100653217 /// NTM (11731650_a_at) / Fold change /veh LOC100653217 /// NTM (11731650_a_at) / RFU MAPK11 (11762145_a_at) / Fold change /veh MAPK11 (11762145_a_at) / RFU FIZ1 (11724087_x_at) / Fold change /veh FIZ1 (11724087_x_at) / RFU OASL (11726364_x_at) / Fold change /veh OASL (11726364_x_at) / RFU SOX15 (11748057_x_at) / Fold change /veh SOX15 (11748057_x_at) / RFU CD79A (11719716_a_at) / Fold change /veh CD79A (11719716_a_at) / RFU HIST1H1D (11736915_at) / Fold change /veh HIST1H1D (11736915_at) / RFU CASKIN2 (11723855_a_at) / Fold change /veh CASKIN2 (11723855_a_at) / RFU LOC730098 (11760151_x_at) / Fold change /veh LOC730098 (11760151_x_at) / RFU OR4N2 (11742367_at) / Fold change /veh OR4N2 (11742367_at) / RFU PRRT2 (11749266_a_at) / Fold change /veh PRRT2 (11749266_a_at) / RFU SNX32 (11753110_a_at) / Fold change /veh SNX32 (11753110_a_at) / RFU CDHR5 (11726645_a_at) / Fold change /veh CDHR5 (11726645_a_at) / RFU RCAN1 (11760418_a_at) / Fold change /veh RCAN1 (11760418_a_at) / RFU FAM167A (11723789_a_at) / Fold change /veh FAM167A (11723789_a_at) / RFU FAM26E (11764081_at) / Fold change /veh FAM26E (11764081_at) / RFU ISYNA1 (11749810_s_at) / Fold change /veh ISYNA1 (11749810_s_at) / RFU ACY1 (11761880_at) / Fold change /veh ACY1 (11761880_at) / RFU 11764098_at / Fold change /veh 11764098_at / RFU SAMD14 (11745864_x_at) / Fold change /veh SAMD14 (11745864_x_at) / RFU NPB (11741838_a_at) / Fold change /veh NPB (11741838_a_at) / RFU TMPRSS6 (11731388_a_at) / Fold change /veh TMPRSS6 (11731388_a_at) / RFU KRTAP10-2 (11738614_at) / Fold change /veh KRTAP10-2 (11738614_at) / RFU ARHGAP8 /// PRR5-ARHGAP8 (11727945_x_at) / Fold change /veh ARHGAP8 /// PRR5-ARHGAP8 (11727945_x_at) / RFU KRTAP5-7 /// NADSYN1 (11734609_at) / Fold change /veh KRTAP5-7 /// NADSYN1 (11734609_at) / RFU RASL12 (11751679_a_at) / Fold change /veh RASL12 (11751679_a_at) / RFU CDKN2B (11736163_a_at) / Fold change /veh CDKN2B (11736163_a_at) / RFU PRF1 (11729649_at) / Fold change /veh PRF1 (11729649_at) / RFU, ZNF638 /// ZNF638-IT1 / Fold change vs veh, ZNF638 /// ZNF638-IT1 / RFU, PANK3 / Fold change vs veh, PANK3 / RFU, SH3YL1 / Fold change vs veh, SH3YL1 / RFU, ZEB2 / Fold change vs veh, ZEB2 / RFU, NRIP1 / Fold change vs veh, NRIP1 / RFU, PTTG1IP / Fold change vs veh, PTTG1IP / RFU, CAPN2 / Fold change vs veh, CAPN2 / RFU, MED14 / Fold change vs veh, MED14 / RFU, SNORA58 / Fold change vs veh, SNORA58 / RFU, C1orf63 / Fold change vs veh, C1orf63 / RFU, LRRFIP1 / Fold change vs veh, LRRFIP1 / RFU, NDUFAF7 / Fold change vs veh, NDUFAF7 / RFU, SLC12A2 / Fold change vs veh, SLC12A2 / RFU, IBTK / Fold change vs veh, IBTK / RFU, ESF1 / Fold change vs veh, ESF1 / Fold change vs veh, TMEM50B / RFU, TAOK1 / Fold change vs veh, TAOK1 / RFU, ACBD3 / Fold change vs veh, ACBD3 / RFU, TMA16 / Fold change vs veh, TMA16 / RFU, RWDD3 / Fold change vs veh, RWDD3 / RFU, BCAT1 / Fold change vs veh, BCAT1 / RFU, EDEM3 / Fold change vs veh, EDEM3 / RFU, TMEM33 / Fold change vs veh, TMEM33 / RFU, WDR75 / Fold change vs veh, WDR75 / RFU, AHCTF1 / Fold change vs veh, AHCTF1 / RFU, TFRC / Fold change vs veh, TFRC / RFU, ZDHHC17 / Fold change vs veh, ZDHHC17 / RFU, NOM1 / Fold change vs veh, NOM1 / RFU, ARL8B / Fold change vs veh, ARL8B / RFU, ZBTB11 / Fold change vs veh, ZBTB11 / RFU, TAMM41 / Fold change vs veh, TAMM41 / RFU, KIAA1704 /// LOC100996395 / Fold change vs veh, KIAA1704 /// LOC100996395 / RFU, ING1 / Fold change vs veh, ING1 / RFU, TRMT61B / Fold change vs veh, TRMT61B / RFU, FUBP3 / Fold change vs veh, FUBP3 / RFU, TP53 / Fold change vs veh, TP53 / RFU, TNKS2 / Fold change vs veh, TNKS2 / RFU, ZFP14 / Fold change vs veh, ZFP14 / RFU, ACTR2 / Fold change vs veh, ACTR2 / RFU, PPP3R1 / Fold change vs veh, PPP3R1 / RFU, PIK3R1 / Fold change vs veh, PIK3R1 / RFU, HNRNPA1 / Fold change vs veh, HNRNPA1 / RFU, RNF170 / Fold change vs veh, RNF170 / RFU, ZNF28 / Fold change vs veh, ZNF28 / RFU, RNGTT / Fold change vs veh, RNGTT / RFU, OGT / Fold change vs veh, OGT / RFU, BRD1 / Fold change vs veh, BRD1 / RFU, MARS / Fold change vs veh, MARS / RFU, ZNF655 / Fold change vs veh, ZNF655 / RFU, FAHD1 / Fold change vs veh, FAHD1 / RFU, BDP1 / Fold change vs veh, BDP1 / RFU, LRRCC1 / Fold change vs veh, LRRCC1 / RFU, ARID1A / Fold change vs veh, ARID1A / RFU, ZNF146 / Fold change vs veh, ZNF146 / RFU, ZNF330 / Fold change vs veh, ZNF330 / RFU, GPN3 / Fold change vs veh, GPN3 / RFU, C9orf123 / Fold change vs veh, C9orf123 / RFU, N4BP2L2 / Fold change vs veh, N4BP2L2 / RFU, ARFIP1 / Fold change vs veh, ARFIP1 / RFU, FAM179B / Fold change vs veh, FAM179B / RFU, BCL10 / Fold change vs veh, BCL10 / RFU, UHRF1BP1L / Fold change vs veh, UHRF1BP1L / RFU, BET1 / Fold change vs veh, BET1 / RFU, CNOT2 / Fold change vs veh, CNOT2 / RFU, ZNF268 / Fold change vs veh, ZNF268 / Fold change vs veh, ZNF507 / RFU, DGCR2 / Fold change vs veh, DGCR2 / RFU, WDSUB1 / Fold change vs veh, WDSUB1 / Fold change vs veh, HSP90B1 /// MIR3652 / RFU, ADSS / Fold change vs veh, ADSS / RFU, GK / Fold change vs veh, GK / RFU, ZNF148 / Fold change vs veh, ZNF148 / RFU, TAF9 / Fold change vs veh, TAF9 / RFU, SLC1A5 / Fold change vs veh, SLC1A5 / RFU, SLMO2 / Fold change vs veh, SLMO2 / RFU, ABCC4 / Fold change vs veh, ABCC4 / RFU, LOC101060439 /// RAP1B / Fold change vs veh, LOC101060439 /// RAP1B / RFU, RFX7 / Fold change vs veh, RFX7 / RFU, GTPBP10 / Fold change vs veh, GTPBP10 / RFU, CNEP1R1 / Fold change vs veh, CNEP1R1 / RFU, BIVM-ERCC5 /// ERCC5 / Fold change vs veh, BIVM-ERCC5 /// ERCC5 / RFU, ILF3 / Fold change vs veh, ILF3 / RFU 11762660_at / Fold change /veh 11762660_at / RFU VCAN (11757783_s_at) / Fold change /veh VCAN (11757783_s_at) / RFU DDX43 (11728927_at) / Fold change /veh DDX43 (11728927_at) / RFU KRT8 (11758188_x_at) / Fold change /veh KRT8 (11758188_x_at) / RFU NKD1 (11759106_at) / Fold change /veh NKD1 (11759106_at) / RFU SRD5A1 (11742802_a_at) / Fold change /veh SRD5A1 (11742802_a_at) / RFU TPSAB1 /// TPSB2 (11721975_s_at) / Fold change /veh TPSAB1 /// TPSB2 (11721975_s_at) / RFU GSTM3 (11746129_a_at) / Fold change /veh GSTM3 (11746129_a_at) / RFU IL23R (11737362_x_at) / Fold change /veh IL23R (11737362_x_at) / RFU TMEM51 (11727254_a_at) / Fold change /veh TMEM51 (11727254_a_at) / RFU PIWIL2 (11732686_x_at) / Fold change /veh PIWIL2 (11732686_x_at) / RFU ORM1 (11744905_x_at) / Fold change /veh ORM1 (11744905_x_at) / RFU CCDC152 (11743942_at) / Fold change /veh CCDC152 (11743942_at) / RFU ECM1 (11717891_a_at) / Fold change /veh ECM1 (11717891_a_at) / RFU IL23R (11748794_a_at) / Fold change /veh IL23R (11748794_a_at) / RFU TNFAIP8L3 (11732012_x_at) / Fold change /veh TNFAIP8L3 (11732012_x_at) / RFU MBOAT4 (11741988_at) / Fold change /veh MBOAT4 (11741988_at) / RFU 11764193_at / Fold change /veh 11764193_at / RFU TMEM53 (11763286_at) / Fold change /veh TMEM53 (11763286_at) / RFU MAGEB2 (11727129_at) / Fold change /veh MAGEB2 (11727129_at) / RFU TMEM200A (11744735_a_at) / Fold change /veh TMEM200A (11744735_a_at) / RFU CCDC152 (11751479_a_at) / Fold change /veh CCDC152 (11751479_a_at) / RFU FAM211A (11726209_a_at) / Fold change /veh FAM211A (11726209_a_at) / RFU RGS16 (11746705_a_at) / Fold change /veh RGS16 (11746705_a_at) / RFU VCAN (11755009_s_at) / Fold change /veh VCAN (11755009_s_at) / RFU RHOB (11743442_s_at) / Fold change /veh RHOB (11743442_s_at) / RFU RGS16 (11720943_a_at) / Fold change /veh RGS16 (11720943_a_at) / RFU RGS16 (11720944_at) / Fold change /veh RGS16 (11720944_at) / RFU, VPS4B / Fold change vs veh, VPS4B / RFU, CREB1 / Fold change vs veh, CREB1 / RFU, DNAJC13 / Fold change vs veh, DNAJC13 / RFU, GNAQ / Fold change vs veh, GNAQ / RFU, CDK5R1 / Fold change vs veh, CDK5R1 / RFU, ZRANB3 / Fold change vs veh, ZRANB3 / RFU, CUL4A / Fold change vs veh, CUL4A / RFU, CCNY / Fold change vs veh, CCNY / RFU, UFL1 / Fold change vs veh, UFL1 / RFU, COG3 / Fold change vs veh, COG3 / RFU, DIAPH2 / Fold change vs veh, DIAPH2 / RFU, SKA2 / Fold change vs veh, SKA2 / RFU, AFF3 / Fold change vs veh, AFF3 / RFU, LMF1 / Fold change vs veh, LMF1 / RFU, IPO11 / Fold change vs veh, IPO11 / RFU, DFFB / Fold change vs veh, DFFB / RFU, FOXP1 / Fold change vs veh, FOXP1 / RFU, CARD8 / Fold change vs veh, CARD8 / RFU, STRN3 / Fold change vs veh, STRN3 / RFU, ADK / Fold change vs veh, ADK / RFU, RASSF2 / Fold change vs veh, RASSF2 / RFU, WIPF1 / Fold change vs veh, WIPF1 / RFU, LARP1B / Fold change vs veh, LARP1B / RFU, RASA1 / Fold change vs veh, RASA1 / RFU, RB1 / Fold change vs veh, RB1 / RFU, PPFIA1 / Fold change vs veh, PPFIA1 / RFU, MAT2A / Fold change vs veh, MAT2A / RFU, CCT5 / Fold change vs veh, CCT5 / RFU, WDR92 / Fold change vs veh, WDR92 / RFU, CUX1 / Fold change vs veh, CUX1 / RFU, TTC7A / Fold change vs veh, TTC7A / RFU, TMEM135 / Fold change vs veh, TMEM135 / RFU, DEPTOR / Fold change vs veh, DEPTOR / RFU, CPM / Fold change vs veh, CPM / RFU, DNAJB6 / Fold change vs veh, DNAJB6 / RFU, CACNA2D3 / Fold change vs veh, CACNA2D3 / RFU, DTX4 / Fold change vs veh, DTX4 / RFU, TFCP2 / Fold change vs veh, TFCP2 / RFU, GMCL1 /// GMCL1P1 / Fold change vs veh, GMCL1 /// GMCL1P1 / RFU, AEBP2 / Fold change vs veh, AEBP2 / RFU, SNHG1 /// SNORD22 /// SNORD25 /// SNORD26 /// SNORD27 /// SNORD28 /// SNORD29 /// SNORD31 / Fold change vs veh, SNHG1 /// SNORD22 /// SNORD25 /// SNORD26 /// SNORD27 /// SNORD28 /// SNORD29 /// SNORD31 / Fold change (Aza/veh), C12orf56 (ProbeSet 11735607_a_at) / Fold change (ACY-1035/veh), C12orf56 (ProbeSet 11735607_a_at) / Fold change (Aza/veh), FGFR1OP (ProbeSet 11751329_s_at) / Fold change (ACY-1035/veh), FGFR1OP (ProbeSet 11751329_s_at) / Fold change (Aza/veh), VPS36 (ProbeSet 11739960_a_at) / Fold change (ACY-1035/veh), VPS36 (ProbeSet 11739960_a_at) / RFU SYPL1 (11715823_x_at) / Fold change /veh SYPL1 (11715823_x_at) / RFU IGFBP7 (11715501_s_at) / Fold change /veh IGFBP7 (11715501_s_at) / RFU REEP3 (11722064_at) / Fold change /veh REEP3 (11722064_at) / RFU IGLL1 (11728026_x_at) / Fold change /veh IGLL1 (11728026_x_at): dose or concentration left out as unconfirmed
Settings: ProbeSet 11753234_a_at; LIST B

Compound: Nc1ccc(-c2cccs2)cc1NC(=O)c1ccc2c(c1)cc(C1CC1)n2CCN1CCOCC1 [ACY-1035]
- Fold change vs veh, TAMM41: 0.90
